Data: US7655237B2, “Use of soluble CD14 for treatment of type 2 diabetes mellitus” (Bridge Bioresearch Limited, priority 2003, dated 2010)
Read-outs that look alike come from different tables or passages of the source.

Key:
LPS = conditions: biotinylated LPS binding to sCD14-coated wells, cited from earlier work
C57BL/6J ob/ob mice = assay: treatment of insulin-resistant diabetic C57BL/6J ob/ob mice, intraperitoneal glucose tolerance test; type: in vivo
Excerpt: The objective of this experiment was to study the effect of systemic administration of human recombinant sCD14 (rhCD14) with respect to relevant insulin resistance parameters in experimental mice (mice C57BL/6J ob/ob).
Experimental animals: Mice strains C57BL/6J ob/ob (The Jackson lab.). Males of 10 weeks old. These animals had obesity with hyperphagia, hyperinsulinemia (the presence of excess insulin in the blood), insulin resistance and moderate hyperglycemia (an excess of sugar in the blood).
Treatment of the mice with rhCD14: rhCD14 was continuously infused for 12 days by use of Alzet® pumps (pump 1002, 100 μl) implanted subcutaneously on the back of the animals. 20 mice were used. 10 with rhCD14 and 10 with saline serum (control). The dose was 1 μg/g weight of mice/day and it was administrated subcutaneously for 12 days.
Assay for glucose tolerance: Finalized the 12 days and after 16 hours of fasting, an intraperitoneal glucose tolerance test (GTT) was made. 2 g/kg of glucose (Glucosmon, 50%) were injected intraperitoneally. Blood samples were taken from the tail of the mice (20 μl) at 0, 15, 30, 60, 120 and 180 minutes after the glucose administration. The blood glucose levels were measured using a conventional glucometer (Menarini) and the insulin levels were meed by ELISA (Mercodia Ultrasensitive Mouse Insulin ELISA).

C57BL/6J mice (HF mice) = assay: treatment of insulin-resistant obese C57BL/6J mice (HF mice), glucose tolerance test; type: in vivo; conditions: HF diet obese mice
Excerpt: The objective of this experiment was to study the effect of systemic administration of human recombinant sCD14 (rhCD14) with respect to relevant insulin resistance parameters in experimental mice (C57BL/6J mice (HF mice).
Experiential animals: Male mice strains C57BL/6J (HF mice) C(he Jackson lab.). These animals had obesity.
Treatment of the mice with rhCD14: Male C57BL/6J mice were fed a HF diet (Harlan Teklad No. 88137: 21% by wt and 42% kcal from fat) for 26-28 weeks. The last 12 days, mice received a dose of 1 μg/g bw per day of hCD14 in two injections (0.5 μg/g each one) every 12 hours. The control group was treated with vehicle (saline serum) alone. Each group contained 9 mice.
Assay for Glucose Tolerance: As in Example 1.

Row | Substance | inhibition of LPS binding (LPS; concentration 1.7 μM) [%] | inhibition of LPS binding (LPS; concentration 7 μM) [%] | basal levels of serum glucose compared to the control group (C57BL/6J ob/ob mice; 1 μg/g/day s.c. for 12 days) | concentrations of serum insulin (C57BL/6J ob/ob mice; 1 μg/g/day s.c. for 12 days) | fasting blood glucose (C57BL/6J ob/ob mice; 1 μg/g/day s.c. infusion for 12 days, 16 hours fasting, mean±SEM, control 242±30, P=0.02) [mg/dL] | body weight, treated vs controls (C57BL/6J ob/ob mice; 12 days treatment) | glucose curves in GTT, treated vs control (two-way ANOVA) (C57BL/6J ob/ob mice; i.p. GTT 2 g/kg glucose, 0-180 min, P<0.02) | insulin curves in GTT, treated vs control (two-way ANOVA) (C57BL/6J ob/ob mice; i.p. GTT, P<0.0001) | concentrations of serum insulin (C57BL/6J mice (HF mice); 1 μg/g bw per day for 12 days) | basal levels of serum glucose compared to the control group (C57BL/6J mice (HF mice); 1 μg/g bw per day in two injections for 12 days) | body weight, treated vs controls (C57BL/6J mice (HF mice); 12 days treatment) | insulin curves in GTT, treated vs control (two-way ANOVA) (C57BL/6J mice (HF mice); P<0.0001) | glucose curves in GTT, treated vs control (two-way ANOVA) (C57BL/6J mice (HF mice); P<0.002)
1 | AELQQWLKPGLKVLSIAQAHSLNFSC (mammalian) [peptide] | 72 | 84 |  |  |  |  |  |  |  |  |  |  | 
2 | rhCD14: human recombinant soluble CD14 glycoprotein, binds bacterial lipopolysaccharide (LPS) | 84 |  | decreased | also decreased | 153 ± 14 | did not produce significant changes | significant difference | significant difference | increased | decreased | did not produce significant changes | significant difference | significant difference
